Results taken from ChEMBL document CHEMBL2016561 (J Med Chem, 2012).
pKi: −log10 of the molar value. *1 amine or outer side, *2 acyl side, *3 side chain or, on linkers, in order; H or OH if unused. Where a SMILES comes first, the peptide text is derived from it. [ ]: non-standard residue; d: D form. The star is where a group is joined. X1 = O=C1[C@@H](CCC(=O)[*:2])CCC[C@H]1N[*:1]; Met(O2) = CS(=O)(=O)CC[C@H](N)C(=O)O; Cbz = O=C(OCc1ccccc1)*

Assays:
Prothrombin = Prothrombin (Homo sapiens, UniProt P00734); assay: Inhibition of thrombin by dixon plot method
[1] = biological target: Vitamin K-dependent protein C (Homo sapiens, UniProt P04070); assay: Inhibition of activated protein C by dixon plot method
Plasminogen = Plasminogen (Homo sapiens, UniProt P00747); assay: Inhibition of plasmin by dixon plot method
Plasma kallikrein = Plasma kallikrein (Homo sapiens, UniProt P03952); assay: Inhibition of plasma kallikrein by dixon plot method
Coagulation factor X = Coagulation factor X (Homo sapiens, UniProt P00742); assay: Inhibition of factor 10a by dixon plot method
Sequence of Coagulation factor X (P00742 41-179 limits assumed): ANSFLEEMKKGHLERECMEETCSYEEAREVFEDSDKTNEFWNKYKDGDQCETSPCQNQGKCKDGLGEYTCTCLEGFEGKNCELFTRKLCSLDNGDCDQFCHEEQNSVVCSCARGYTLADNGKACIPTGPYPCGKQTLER
Sequence of Coagulation factor X (P00742 235-488 limits assumed): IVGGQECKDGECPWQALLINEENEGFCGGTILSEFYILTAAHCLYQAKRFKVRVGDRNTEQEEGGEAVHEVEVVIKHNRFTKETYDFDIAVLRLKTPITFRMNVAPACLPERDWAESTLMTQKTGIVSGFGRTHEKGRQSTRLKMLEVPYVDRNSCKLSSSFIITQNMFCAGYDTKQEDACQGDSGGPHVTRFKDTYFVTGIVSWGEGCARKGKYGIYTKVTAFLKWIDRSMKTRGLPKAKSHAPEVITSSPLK

Sequence of Vitamin K-dependent protein C (P04070 43-197 limits assumed): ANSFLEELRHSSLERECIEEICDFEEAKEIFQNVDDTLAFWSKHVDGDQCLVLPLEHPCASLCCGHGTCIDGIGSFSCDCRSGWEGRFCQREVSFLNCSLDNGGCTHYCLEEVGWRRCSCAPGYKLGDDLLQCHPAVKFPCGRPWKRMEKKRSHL
Sequence of Vitamin K-dependent protein C (P04070 212-461 limits assumed): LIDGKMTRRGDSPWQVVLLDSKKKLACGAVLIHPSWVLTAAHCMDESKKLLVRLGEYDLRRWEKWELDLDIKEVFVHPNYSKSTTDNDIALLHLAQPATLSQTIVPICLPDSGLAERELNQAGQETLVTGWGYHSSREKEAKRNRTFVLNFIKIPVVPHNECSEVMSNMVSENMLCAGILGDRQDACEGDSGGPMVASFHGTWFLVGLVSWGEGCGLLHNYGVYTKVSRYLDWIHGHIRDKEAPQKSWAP
Sequence of Plasma kallikrein (P03952 20-390 limits assumed): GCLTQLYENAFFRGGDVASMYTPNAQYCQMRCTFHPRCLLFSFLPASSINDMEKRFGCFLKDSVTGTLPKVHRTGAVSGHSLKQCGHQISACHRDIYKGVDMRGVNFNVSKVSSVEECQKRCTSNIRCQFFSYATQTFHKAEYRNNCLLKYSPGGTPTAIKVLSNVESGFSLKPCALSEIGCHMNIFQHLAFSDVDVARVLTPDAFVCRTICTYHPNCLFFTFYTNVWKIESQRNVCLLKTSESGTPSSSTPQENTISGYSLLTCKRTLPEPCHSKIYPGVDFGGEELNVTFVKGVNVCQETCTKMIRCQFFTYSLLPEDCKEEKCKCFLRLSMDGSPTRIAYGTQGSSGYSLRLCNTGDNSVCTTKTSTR
Sequence of Plasma kallikrein (P03952 391-638 limits assumed): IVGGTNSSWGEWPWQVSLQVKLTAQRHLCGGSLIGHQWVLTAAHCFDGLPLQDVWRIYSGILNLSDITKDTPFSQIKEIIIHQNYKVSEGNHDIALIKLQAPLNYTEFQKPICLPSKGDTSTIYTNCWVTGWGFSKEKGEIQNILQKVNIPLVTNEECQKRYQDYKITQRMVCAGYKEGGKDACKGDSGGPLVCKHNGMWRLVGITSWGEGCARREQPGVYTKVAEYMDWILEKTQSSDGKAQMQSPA
Sequence of Plasminogen (P00747 97-580 limits assumed): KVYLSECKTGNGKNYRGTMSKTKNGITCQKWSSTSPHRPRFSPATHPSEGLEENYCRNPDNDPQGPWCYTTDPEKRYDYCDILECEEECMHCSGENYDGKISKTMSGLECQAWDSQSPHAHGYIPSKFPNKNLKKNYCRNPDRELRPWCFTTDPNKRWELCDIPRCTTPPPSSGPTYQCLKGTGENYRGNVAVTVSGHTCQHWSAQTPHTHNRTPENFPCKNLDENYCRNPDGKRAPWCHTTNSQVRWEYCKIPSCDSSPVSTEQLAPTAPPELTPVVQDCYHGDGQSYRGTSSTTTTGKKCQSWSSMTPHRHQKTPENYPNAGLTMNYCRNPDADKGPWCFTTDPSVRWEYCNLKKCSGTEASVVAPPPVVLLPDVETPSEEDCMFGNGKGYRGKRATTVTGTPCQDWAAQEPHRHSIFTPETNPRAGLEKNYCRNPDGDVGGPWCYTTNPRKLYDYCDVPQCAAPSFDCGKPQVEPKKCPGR
Sequence of Plasminogen (P00747 581-810 limits assumed): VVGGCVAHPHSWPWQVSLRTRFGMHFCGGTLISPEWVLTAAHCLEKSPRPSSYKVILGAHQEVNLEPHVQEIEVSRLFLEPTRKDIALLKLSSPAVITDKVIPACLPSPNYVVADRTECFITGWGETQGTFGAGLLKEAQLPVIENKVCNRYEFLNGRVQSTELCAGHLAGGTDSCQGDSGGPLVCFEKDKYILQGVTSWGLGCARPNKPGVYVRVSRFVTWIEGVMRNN

pKi (Prothrombin)	pKi [1]	pKi (Plasminogen)	pKi (Plasma kallikrein)	pKi (Coagulation factor X)	Structure (SMILES)
5.19	4.92	–	–	–	N=C(N)c1ccc(CNC(=O)[C@@H]2Cc3ccc(cc3)CNC(=O)Cc3ccc(cc3)CC(=O)NCc3ccc(cc3)C[C@@H](NS(=O)(=O)Cc3ccccc3)C(=O)N2)cc1
6.18	9.21	9.09	10.12	7.38	N=C(N)NCc1cccc(C[C@H](NC(=O)[C@@H](CCCc2ccccc2)NS(=O)(=O)Cc2cccc(C(=O)O)c2)C(=O)NCc2ccc(C(=N)N)cc2)c1
5.69	8.29	–	–	–	N=C(N)c1ccc(CNC(=O)[C@@H]2CCC(=O)NCc3cccc(c3)CNC(=O)CC[C@@H](NS(=O)(=O)Cc3ccccc3)C(=O)N2)cc1
5.45	5.45	–	–	–	N=C(N)c1ccc(CNC(=O)[C@@H]2Cc3ccc(cc3)CNC(=O)CN3CCN(CC3)CC(=O)NCc3ccc(cc3)C[C@@H](NS(=O)(=O)Cc3ccccc3)C(=O)N2)cc1
8.14	7.32	–	7.60	7.68	N=C(N)c1ccc(CNC(=O)[C@@H]2Cc3cccc(c3)CNC(=O)CN3CCN(CC3)CC(=O)NCc3cccc(c3)C[C@@H](NS(=O)(=O)Cc3ccccc3)C(=O)N2)cc1
7.57	6.65	–	–	–	N=C(N)c1ccc(CNC(=O)[C@@H]2Cc3cccc(c3)CNC(=O)Cc3cccc(c3)CC(=O)NCc3cccc(c3)C[C@@H](NS(=O)(=O)Cc3ccccc3)C(=O)N2)cc1
6.29	5.34	8.96	7.72	6.11	N=C(N)c1ccc(CNC(=O)[C@@H]2Cc3ccc(cc3)OCCCCOc3ccc(cc3)C[C@@H](NS(=O)(=O)Cc3ccccc3)C(=O)N2)cc1
5.02	5.52	–	–	–	N=C(N)c1ccc(CNC(=O)[C@@H]2Cc3cn(nn3)Cc3cccc(c3)Cn3cc(nn3)C[C@@H](NS(=O)(=O)Cc3ccccc3)C(=O)N2)cc1
5.21	5.08	–	–	–	N=C(N)c1ccc(CNC(=O)[C@@H]2Cc3cn(nn3)Cc3cccc(n3)Cn3cc(nn3)C[C@@H](NS(=O)(=O)Cc3ccccc3)C(=O)N2)cc1
5.93	< 5.22	8.05	7.17	5.51	N=C(N)c1ccc(CNC(=O)[C@@H]2Cc3cn(nn3)Cc3cccc([n+]3[O-])Cn3cc(nn3)C[C@@H](NS(=O)(=O)Cc3ccccc3)C(=O)N2)cc1
–	–	6.28	–	–	CCCCCCCCNC(=O)[C@@H](Cc1ccc(OCc2ccncc2)cc1)NC(=O)[C@H]1CC[C@H](CN)CC1
–	–	8.51	–	–	CC(=O)N[C@@H](CCCNC(=N)N)C(=O)N[C@@H](CCS(C)(=O)=O)C(=O)N[C@@H](Cc1ccc(O)cc1)C(=O)N[C@H](C=O)CCCNC(=N)N (Ac-R[Met(O2)]YR-aldehyde)
–	–	5.57	–	–	O=C(CC[C@H]1CCC[C@@H](NC(=O)[C@H](Cc2c[nH]c3ccccc23)NC(=O)[C@H](Cc2c[nH]c3ccccc23)NC(=O)OCc2ccccc2)C1=O)N[C@@H](Cc1c[nH]c2ccccc12)C(=O)N[C@@H](Cc1ccc(O)cc1)C(=O)O (Cbz-WW[X1]WY-OH)
6.86	7.05	–	–	–	N=C(N)c1ccc(CNC(=O)[C@@H]2Cc3ccc(cc3)OCC=CCOc3ccc(cc3)C[C@@H](NS(=O)(=O)Cc3ccccc3)C(=O)N2)cc1 (mixture of isomers)

Structure (SMILES)	pKi (Prothrombin)	pKi [1]	pKi (Plasminogen)	pKi (Plasma kallikrein)	pKi (Coagulation factor X)
N=C(N)c1ccc(CNC(=O)[C@@H]2Cc3cccc(c3)CNC(=O)Cc3ccc(cc3)CC(=O)NCc3cccc(c3)C[C@@H](NS(=O)(=O)Cc3ccccc3)C(=O)N2)cc1	7.34	6.25	–	–	–
